Laboratory results published in ChEMBL document CHEMBL3608230, “Design, synthesis and RON receptor tyrosine kinase inhibitory activity of new head groups analogs of LCRF-0004” (Bioorg Med Chem Lett, 2015).

Key:
[1] = molecular target: Macrophage-stimulating protein receptor (Homo sapiens, UniProt Q04912); experiment: Inhibition of human RON
[2] = molecular target: Hepatocyte growth factor receptor (Homo sapiens, UniProt P08581); experiment: Inhibition of c-Met phosphorylation in human MKN45 cells; format: cell-based, MKN-45
Chain of Hepatocyte growth factor receptor (P08581 whole entry): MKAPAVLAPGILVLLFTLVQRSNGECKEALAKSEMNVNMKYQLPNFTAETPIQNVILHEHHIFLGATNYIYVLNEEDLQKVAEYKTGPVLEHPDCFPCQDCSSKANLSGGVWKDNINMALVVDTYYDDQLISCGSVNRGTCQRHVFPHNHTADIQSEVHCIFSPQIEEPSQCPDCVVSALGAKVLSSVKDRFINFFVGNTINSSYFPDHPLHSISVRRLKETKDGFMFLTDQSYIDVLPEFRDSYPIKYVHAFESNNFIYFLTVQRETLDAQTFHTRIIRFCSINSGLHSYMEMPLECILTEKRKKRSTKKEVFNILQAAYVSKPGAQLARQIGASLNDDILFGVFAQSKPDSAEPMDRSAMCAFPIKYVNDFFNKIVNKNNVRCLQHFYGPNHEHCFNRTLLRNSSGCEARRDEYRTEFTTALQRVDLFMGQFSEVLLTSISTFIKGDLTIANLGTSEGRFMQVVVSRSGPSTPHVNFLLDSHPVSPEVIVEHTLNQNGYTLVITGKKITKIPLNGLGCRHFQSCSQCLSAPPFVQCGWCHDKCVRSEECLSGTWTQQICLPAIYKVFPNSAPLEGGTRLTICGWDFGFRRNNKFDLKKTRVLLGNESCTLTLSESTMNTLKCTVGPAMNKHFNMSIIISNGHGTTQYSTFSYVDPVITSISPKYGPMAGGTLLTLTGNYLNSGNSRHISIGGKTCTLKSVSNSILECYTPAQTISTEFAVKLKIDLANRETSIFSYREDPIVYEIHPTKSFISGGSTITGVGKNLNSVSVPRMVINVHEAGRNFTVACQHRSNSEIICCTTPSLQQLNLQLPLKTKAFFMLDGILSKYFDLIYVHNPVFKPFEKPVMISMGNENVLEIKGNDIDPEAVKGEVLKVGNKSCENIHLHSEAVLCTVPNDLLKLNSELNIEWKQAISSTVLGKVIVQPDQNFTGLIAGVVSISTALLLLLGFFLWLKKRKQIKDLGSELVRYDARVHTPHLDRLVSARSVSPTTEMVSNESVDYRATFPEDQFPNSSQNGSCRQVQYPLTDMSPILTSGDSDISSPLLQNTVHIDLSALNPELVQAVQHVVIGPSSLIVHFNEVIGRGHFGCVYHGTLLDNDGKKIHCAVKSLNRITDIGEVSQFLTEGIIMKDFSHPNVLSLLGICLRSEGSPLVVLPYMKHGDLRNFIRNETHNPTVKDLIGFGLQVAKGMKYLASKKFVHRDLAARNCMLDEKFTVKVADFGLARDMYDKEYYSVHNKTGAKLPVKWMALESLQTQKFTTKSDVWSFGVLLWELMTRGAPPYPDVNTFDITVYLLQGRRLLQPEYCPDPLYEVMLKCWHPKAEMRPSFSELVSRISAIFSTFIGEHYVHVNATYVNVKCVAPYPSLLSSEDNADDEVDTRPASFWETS

Chain of Macrophage-stimulating protein receptor (Q04912 25-304 limits assumed): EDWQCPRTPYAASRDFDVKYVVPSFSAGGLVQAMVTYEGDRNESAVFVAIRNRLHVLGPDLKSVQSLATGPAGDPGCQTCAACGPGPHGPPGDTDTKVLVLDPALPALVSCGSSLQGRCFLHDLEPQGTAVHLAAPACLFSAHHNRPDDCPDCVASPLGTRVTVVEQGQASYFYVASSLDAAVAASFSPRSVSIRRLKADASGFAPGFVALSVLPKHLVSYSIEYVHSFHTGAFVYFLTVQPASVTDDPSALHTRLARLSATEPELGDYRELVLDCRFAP
Chain of Macrophage-stimulating protein receptor (Q04912 310-1400 limits assumed): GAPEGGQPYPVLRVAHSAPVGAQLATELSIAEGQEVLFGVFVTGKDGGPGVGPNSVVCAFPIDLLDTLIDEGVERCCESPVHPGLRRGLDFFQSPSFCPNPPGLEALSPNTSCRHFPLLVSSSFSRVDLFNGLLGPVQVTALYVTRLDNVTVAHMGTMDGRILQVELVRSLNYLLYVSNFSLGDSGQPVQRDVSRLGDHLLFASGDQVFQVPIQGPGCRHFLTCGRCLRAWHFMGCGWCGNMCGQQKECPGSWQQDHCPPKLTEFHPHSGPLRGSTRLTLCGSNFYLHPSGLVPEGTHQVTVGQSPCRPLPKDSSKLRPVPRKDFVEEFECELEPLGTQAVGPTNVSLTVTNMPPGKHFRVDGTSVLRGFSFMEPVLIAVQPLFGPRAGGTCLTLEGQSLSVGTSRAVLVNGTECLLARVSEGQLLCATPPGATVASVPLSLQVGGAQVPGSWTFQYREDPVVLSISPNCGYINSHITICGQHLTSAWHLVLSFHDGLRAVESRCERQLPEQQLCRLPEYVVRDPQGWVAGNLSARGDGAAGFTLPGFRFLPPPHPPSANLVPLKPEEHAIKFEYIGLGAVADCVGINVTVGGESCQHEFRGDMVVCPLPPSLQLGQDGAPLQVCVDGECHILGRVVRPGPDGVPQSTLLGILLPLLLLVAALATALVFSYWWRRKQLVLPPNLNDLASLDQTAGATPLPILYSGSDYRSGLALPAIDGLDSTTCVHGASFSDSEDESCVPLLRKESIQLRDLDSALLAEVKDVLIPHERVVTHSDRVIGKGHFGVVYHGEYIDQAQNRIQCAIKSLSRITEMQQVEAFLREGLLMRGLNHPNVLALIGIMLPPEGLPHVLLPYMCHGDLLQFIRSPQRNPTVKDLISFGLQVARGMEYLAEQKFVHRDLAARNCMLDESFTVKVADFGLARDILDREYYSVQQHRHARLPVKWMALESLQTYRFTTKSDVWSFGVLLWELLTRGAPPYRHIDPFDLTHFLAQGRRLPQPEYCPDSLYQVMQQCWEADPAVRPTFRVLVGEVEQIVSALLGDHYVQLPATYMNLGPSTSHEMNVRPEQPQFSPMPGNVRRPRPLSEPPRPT

**Q.** How did the IC50 [1] turn out when `Cn1cnc(-c2cc3nccc(Oc4ccc(NC(=O)c5cc(-c6ccccc6)n(-c6ccccc6)c5)cc4F)c3s2)c1` was run?
**A.** 101 nM

**Q.** With `COc1cccc(-c2c(C(=O)Nc3ccc(Oc4ccnc5cc(-c6cn(C)cn6)sc45)c(F)c3)cnn2-c2ccccc2)c1` as the molecule, how does the IC50 [1] read?
**A.** 27 nM

**Q.** With `COc1ccc(-c2c(C(=O)Nc3ccc(Oc4ccnc5cc(-c6cn(C)cn6)sc45)c(F)c3)cnn2-c2ccccc2)cc1` as the molecule, how does the IC50 [2] read?
**A.** > 10 µM

**Q.** Which IC50 [2] does the source give for `Cn1cnc(-c2cc3nccc(Oc4ccc(NC(=O)c5cnn(-c6ccccc6)c5-c5ccncc5)cc4F)c3s2)c1` here?
**A.** > 10 µM
